Assay [1] in a line: Antioxidative activity, method 2: DPPH spectrometry. The note with it: ethanol solutions, 25 μM of each substance, after 20 minutes, calibrated with catechin.
Description: Since the TBARS is red, method 1 cannot accurately determine absorbance of some carotenoids. Therefore, spectrometry using 1,1-dipehnyl-2-picrylhydrazyl (DPPH) was also conducted (K. Shinohara and T. Suzuki, Shokuhin-Kinou-Kenkyuho (Methods for Functional Food Analysis), 2000, 218).
In method 2, 12 ml of a 200 mM MES buffer (pH 6.0) was added to 12 ml of a 400 μM DPPH ethanol solution. Then, 12 ml ethanol was added to prepare a mixture. An ethanol solution (0.6 ml) containing an antioxidative substance was added to the mixture (0.9 ml). After 20 minutes, the absorbance of the mixture was measured at 510 nm. In this measuring system, the absorbance decreases as the antioxidative activity of the antioxidative substance increases. The antioxidative activity of the antioxidative substance was quantitatively determined using a calibration curve prepared with catechin. Namely, the minimum absorbance when DPPH radicals were completely consumed with an excess amount of catechin corresponded to 100% antioxidative activity. The maximum absorbance when DPPH radicals were not consumed at all corresponded to 0% antioxidative activity. The calibration curve was drawn from these 2 points and the antioxidative activity (%) was determined from the absorbance of the antioxidative substance.
According to the above-mentioned methods, the antioxidative activity (A) in combination of reduced coenzyme Q10 and a carotenoid, the antioxidative activity (B) of reduced coenzyme Q10 used alone, and the antioxidative activity (C) of the carotenoid used alone are measured. The antioxidative activity in combination of reduced coenzyme Q10 and the carotenoid is compared with the sum (additive effect) of the antioxidative activity of reduced coenzyme Q10 alone and the antioxidative activity of the carotenoid alone in order to investigate the synergistic effect.
In the present invention, both the following two formulae were used to correctly determine if the use in combination of reduced coenzyme Q10 and a carotenoid show synergistic effect. […]
Assay [2] concerns thiobarbituric acid-reactive substances (TBARS) in rat brain homogenate. In words: Antioxidative activity, method 1: TBARS level in oxidised rat brain homogenate. The settings on record: ethanol solutions, 100 mM of each substance, 37° C., 27 hours. In kind it is biochemical.
Description: In method 1 of measuring antioxidative activity, a level of thiobarbituric acid-reactive substances (TBARS) generated by an oxidative reaction was determined (Buege J. A. and Aust S. D., Methods Enzymol., 1978, 52: 302).
In this method, rat brain was homogenized in about 2.5 times by weight of saline to prepare a brain homogenate. The brain homogenate (80 μl), an ethanol solution (30 μl) containing antioxidative substance, Eagle's MEM medium (120 μl) , CuSO4 (240 μM), and FeCl3 (240 μM) were mixed and the mixture was maintained at 37° C. for 27 hours. Then, a 20% trichloroacetic acid (TCA) solution (0.9 ml) and a 0.67% thiobarbituric acid (TBA) solution (0.9 ml) were added and the resulting mixture was heated at 100° C. for 30 minutes. After cooling by water, the mixture was centrifuged to separate a supernatant. The absorbance of the supernatant was measured at 532 nm. […] The antioxidative activity (%) of an antioxidative substance was determined by the ratio of a decrease of the TBARS content in the presence of an antioxidative substance to the TBARS content in the absence of an antioxidative substance.
According to the above-mentioned methods, the antioxidative activity (A) in combination of reduced coenzyme Q10 and a carotenoid, the antioxidative activity (B) of reduced coenzyme Q10 used alone, and the antioxidative activity (C) of the carotenoid used alone are measured. […]

`CC(C)=CCC/C(C)=C/C=C/C(C)=C/C=C/C(C)=C/C=C/C=C(C)/C=C/C=C(C)/C=C/C=C(\C)CCC=C(C)C` [Lycopene, lycopene]: in assay [1], the “Antioxidative Activity (%) (Inhibition Ratio of Oxidation)” value is given as 0.9%.

Consider `CC1=C(/C=C/C(C)=C/C=C/C(C)=C/C=C/C=C(C)/C=C/C=C(C)/C=C/C2=C(C)CCCC2(C)C)C(C)(C)CCC1` [β-Carotene, β-carotene], for which the “Antioxidative Activity (%) (Inhibition Ratio of Oxidation)” value in assay [1] is listed as 8.8%.

`CC1=C(/C=C/C(C)=C/C=C/C(C)=C/C=C/C=C(C)/C=C/C=C(C)/C=C/C2=C(C)C(=O)[C@@H](O)CC2(C)C)C(C)(C)C[C@H](O)C1=O` [Astaxanthin, astaxanthin]: in assay [2], the “Antioxidative Activity (%) (Inhibition Ratio of Oxidation)” value was found to be 21.6%.

Take `COc1c(O)c(C)c(C/C=C(\C)CC/C=C(\C)CC/C=C(\C)CC/C=C(\C)CC/C=C(\C)CC/C=C(\C)CC/C=C(\C)CC/C=C(\C)CC/C=C(\C)CCC=C(C)C)c(O)c1OC` [Reduced coenzyme Q10, reduced coenzyme Q10]: the figures for the “Antioxidative Activity (%) (Inhibition Ratio of Oxidation)” value in assay [2] and in assay [1] were 10.9% and 10.3%, respectively.
